Laboratory results as given in the supplement of paper PMC11061612.

How the values were obtained:
[1] = compound: COc1cccc2c1C(=O)c1c(O)c3c(c(O)c1C2=O)C[C@@](O)(C(=O)CO)C[C@@H]3O[C@H]1C[C@H](N)[C@H](O)[C@H](C)O1 [Doxorubicin]; conditions: max 1 µM
How it was run: (§1)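 Plates with 1536 wells received cancer cell lines in 7.5 μl of DMEM/F12 or RPMI containing 10% FBS. After 24 hours at 37°C and 5% CO2, cells were dosed for 72 hours with final DMSO typically 0.2%, and viability was read by CellTiter-Glo 2.0 luminescence scaled between blank-well and DMSO-well means. The single-agent IC50 was taken from a logistic fit of the dose responses made with a non-linear mixed effects model, that logistic curve having two parameters.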

[2] = compound: C1CN(CCC1(C(=O)N[C@@H](CCO)C2=CC=C(C=C2)Cl)N)C3=NC=NC4=C3C=CN4 [AZD5363]; conditions: max 10 µM
How it was run: as §1

[3] = compound: CS(=O)(=O)CCNCc1ccc(-c2ccc3ncnc(Nc4ccc(OCc5cccc(F)c5)c(Cl)c4)c3c2)o1 [Lapatinib]; conditions: max 10 µM
How it was run: as §1

[4] = compound: C=CCn1c(=O)c2cnc(Nc3ccc(N4CCN(C)CC4)cc3)nc2n1-c1cccc(C(C)(C)O)n1 [AZD1775]; conditions: max 3 µM
How it was run: as §1

[5] = compound: CC1=C(C(=CC=C1)Cl)NC(=O)C2=CN=C(S2)NC3=CC(=NC(=N3)C)N4CCN(CC4)CCO [Dasatinib]; conditions: max 2 µM
How it was run: as §1

[6] = compound: COc1cccc(OCCCN)c1-c1cc(Nc2cnc(C#N)cn2)n[nH]1 [Prexasertib]; conditions: max 1 µM
How it was run: as §1

[7] = compound: CC(=O)Nc1cccc(-n2c(=O)n(C3CC3)c(=O)c3c(Nc4ccc(I)cc4F)n(C)c(=O)c(C)c32)c1 [Trametinib]; conditions: max 1 µM
How it was run: as §1

[8] = compound: COc1cc(Nc2ncc3c(n2)-c2ccc(Cl)cc2C(c2c(F)cccc2OC)=NC3)ccc1C(=O)O [Alisertib]; conditions: max 10 µM
How it was run: as §1

[9] = compound: O=C(Nc1ccc2[nH]nc(-c3ccncc3)c2c1)[C@@H]1CCN(CC(=O)N2CCN(c3ccc(-c4ncccn4)cc3)CC2)C1; conditions: max 5 µM
How it was run: as §1

[10] = compound: Cc1cc2ncnn2cc1Nc1ncc2c(n1)n(C1CCOCC1)c(=O)n2C [AZD7648]; conditions: max 10 µM
How it was run: as §1

[11] = compound: CN(CC[C@H](CSC1=CC=CC=C1)NC2=C(C=C(C=C2)S(=O)(=O)NC(=O)C3=CC=C(C=C3)N4CCC(CC4)[C@H](C5=CC=CC=C5C6=CC=C(C=C6)Cl)O)S(=O)(=O)C(F)(F)F)CCO [AZD4320]; conditions: max 1 µM
How it was run: as §1

[12] = compound: C1CC(C1)(C(=O)[O-])C(=O)[O-].N.N.[Pt+2] [Carboplatin]; conditions: max 10 µM
How it was run: as §1

[13] = compound: Cn1cnc2c(F)c(Nc3ccc(Br)cc3Cl)c(C(=O)NOCCO)cc21 [Selumetinib]; conditions: max 10 µM
How it was run: as §1

[14] = compound: CC1=CN2[C@@H](C1)C=NC3=CC(=C(C=C3C2=O)OC)OCCCCCOC4=C(C=C5C(=C4)N=C[C@@H]6CC(=CN6C5=O)C)OC [SG3199]; conditions: max 0.001 µM
How it was run: as §1

[15] = compound: CCc1c2c(nc3ccc(O)cc13)-c1cc3c(c(=O)n1C2)COC(=O)[C@]3(O)CC [SN-38]; conditions: max 0.3 µM
How it was run: as §1

[16] = compound: CC(C)n1c(=O)n(C)c2cnc3cc(F)c(-c4ccc(OCCCN5CCCCC5)nc4)cc3c21 [AZD1390]; conditions: max 0.3 µM
How it was run: as §1

[17] = compound: O=c1[nH]cc(F)c(=O)[nH]1 [5-Fluorouracil]; conditions: max 20 µM
How it was run: as §1

[18] = compound: Cc1nc(-c2cn3c(n2)-c2ccc(-c4cnn(C(C)(C)C(N)=O)c4)cc2OCC3)n(C(C)C)n1 [Taselisib]; conditions: max 10 µM
How it was run: as §1

[19] = compound: COc1cc([C@@H]2c3cc4c(cc3[C@@H](O[C@@H]3O[C@@H]5CO[C@@H](C)O[C@H]5[C@H](O)[C@H]3O)[C@H]3COC(=O)[C@H]23)OCO4)cc(OC)c1O [Etoposide]; conditions: max 10 µM
How it was run: as §1

[20] = compound: O=C(c1cc(Cc2n[nH]c(=O)c3ccccc23)ccc1F)N1CCN(C(=O)C2CC2)CC1 [Olaparib]; conditions: max 10 µM
How it was run: as §1

[21] = compound: C[C@@H](Oc1cc(-c2cnn(C3CCNCC3)c2)cnc1N)c1c(Cl)ccc(F)c1Cl [Crizotinib]; conditions: max 10 µM
How it was run: as §1

[22] = compound: COc1cc2ncnc(Nc3ccc(F)c(Cl)c3)c2cc1OCCCN1CCOCC1 [Gefitinib]; conditions: max 10 µM
How it was run: as §1

[23] = compound: N#Cc1cnc(Nc2cc(NC[C@H]3CNCCO3)c(C(F)(F)F)cn2)cn1 [SRA737]; conditions: max 10 µM
How it was run: as §1

[24] = compound: C[C@@H](Nc1cc(F)cc(F)c1)c1cc(C(=O)N(C)C)cc2c(=O)cc(N3CCOCC3)oc12 [AZD8186]; conditions: max 10 µM
How it was run: as §1

[25] = compound: CC1(C)CCC(CN2CCN(c3ccc(C(=O)NS(=O)(=O)c4ccc(NCC5CCOCC5)c([N+](=O)[O-])c4)c(Oc4cnc5[nH]ccc5c4)c3)CC2)=C(c2ccc(Cl)cc2)C1 [Venetoclax]; conditions: max 1 µM
How it was run: as §1

[26] = compound: CN(C)CCCOc1ccc(-c2ccc3ncc4c(c3c2)n(C2CCOCC2)c(=O)n4C)cn1 [AZD0156]; conditions: max 3 µM
How it was run: as §1

[27] = compound: Nc1ccn([C@@H]2O[C@H](CO)[C@@H](O)C2(F)F)c(=O)n1 [Gemcitabine]; conditions: max 0.3 µM
How it was run: as §1

[28] = compound: C[C@@H]1COCCN1C2=NC(=NC(=C2)C3(CC3)[S@](=N)(=O)C)C4=C5C=CNC5=NC=C4 [AZD6738]; conditions: max 10 µM
How it was run: as §1

[29] = compound: C[C@@H](c1ccc2nccn2c1)n1nnc2ncc(-c3cnn(C)c3)nc21 [Savolitinib]; conditions: max 1 µM
How it was run: as §1

[30] = compound: CC(=O)O[C@H]1C(=O)[C@@]2(C)[C@H]([C@H](OC(=O)c3ccccc3)[C@]3(O)C[C@H](OC(=O)[C@H](O)[C@@H](NC(=O)c4ccccc4)c4ccccc4)C(C)=C1C3(C)C)[C@]1(OC(C)=O)CO[C@@H]1C[C@@H]2O [Paclitaxel]; conditions: max 3 µM
How it was run: as §1

[31] = compound: COc1nnc2ccc(N3CCC(c4ccc(OCCN5CCN(C)C(=O)[C@H]5C)cc4)CC3)nn12 [AZD5153]; conditions: max 1 µM
How it was run: as §1

[32] = compound: NC1(c2ccc(-c3nc4ccn5c(=O)[nH]nc5c4cc3-c3ccccc3)cc2)CCC1 [MK-2206]; conditions: max 10 µM
How it was run: as §1

[33] = compound: CC(=O)c1c(C)c2cnc(Nc3ccc(N4CCNCC4)cn3)nc2n(C2CCCC2)c1=O [Palbociclib]; conditions: max 10 µM
How it was run: as §1

[34] = compound: CCN(CCO)CCCOc1ccc2c(Nc3cc(CC(=O)Nc4cccc(F)c4)[nH]n3)ncnc2c1 [AZD2811]; conditions: max 1 µM
How it was run: as §1

[35] = compound: Cc1c2c(nn1C)CSCc1cc(n(C)n1)CSc1cc(c3ccccc3c1)OCCCc1c(C(=O)O)n(C)c3c-2c(Cl)ccc13 [AZD5991]; conditions: max 1 µM
How it was run: as §1

Cell Line	IC50, cell viability 72 h [1] [nM]	IC50, cell viability 72 h [2] [µM]	IC50, cell viability 72 h [3] [µM]	IC50, cell viability 72 h [4] [nM]	IC50, cell viability 72 h [5] [nM]	IC50, cell viability 72 h [6] [nM]	IC50, cell viability 72 h [7] [nM]	IC50, cell viability 72 h [8] [µM]	IC50, cell viability 72 h [9] [µM]	IC50, cell viability 72 h [10] [µM]	IC50, cell viability 72 h [11] [nM]	IC50, cell viability 72 h [12] [µM]	IC50, cell viability 72 h [13] [µM]	IC50, cell viability 72 h [14] [nM]	IC50, cell viability 72 h [15] [nM]	IC50, cell viability 72 h [16] [nM]	IC50, cell viability 72 h [17] [µM]	IC50, cell viability 72 h [18] [nM]	IC50, cell viability 72 h [19] [µM]	IC50, cell viability 72 h [20] [µM]	IC50, cell viability 72 h [21] [µM]	IC50, cell viability 72 h [22] [µM]	IC50, cell viability 72 h [23] [µM]	IC50, cell viability 72 h [24] [µM]	IC50, cell viability 72 h [25] [nM]	IC50, cell viability 72 h [26] [nM]	IC50, cell viability 72 h [27] [nM]	IC50, cell viability 72 h [28] [µM]	IC50, cell viability 72 h [29] [nM]	IC50, cell viability 72 h [30] [nM]	IC50, cell viability 72 h [31] [nM]	IC50, cell viability 72 h [32] [µM]	IC50, cell viability 72 h [33] [µM]	IC50, cell viability 72 h [34] [nM]	IC50, cell viability 72 h [35] [nM]
RT-112 (Bladder Carcinoma)	> 1000	> 10	> 10	549	> 2000	31.2	305	2.22	3.6	> 10	> 1000	> 10	> 10	> 1	255	> 300	> 20	2950	> 10	> 10	> 10	> 10	> 10	> 10	> 1000	> 3000	291	4.41	> 1000	9.52	> 1000	> 10	> 10	> 1000	413
OC-314 (Ovarian Carcinoma)	63.9	> 10	> 10	671	205	39.4	> 1000	6.23	> 5	> 10	> 1000	> 10	> 10	> 1	8.72	> 300	17.8	1600	0.876	> 10	> 10	> 10	> 10	7.39	> 1000	> 3000	34.4	2.61	> 1000	5.9	70.9	> 10	> 10	> 1000	> 1000
CAPAN-1 (Pancreatic Carcinoma)	> 1000	> 10	> 10	1230	> 2000	485	349	> 10	2.79	> 10	> 1000	> 10	> 10	> 1	38.8	> 300	> 20	> 10000	> 10	> 10	> 10	> 10	> 10	> 10	> 1000	> 3000	130	> 10	> 1000	188	> 1000	> 10	> 10	> 1000	> 1000
SH-4 (Melanoma)	> 1000	> 10	> 10	1490	> 2000	187	2.59	> 10	0.111	> 10	> 1000	> 10	0.259	> 1	> 300	> 300	> 20	> 10000	> 10	> 10	> 10	> 10	> 10	> 10	> 1000	> 3000	> 300	> 10	> 1000	2550	432	> 10	> 10	> 1000	> 1000
EN (Endometrial Carcinoma)	> 1000	5.5	> 10	770	> 2000	41.3	> 1000	3.67	> 5	> 10	> 1000	> 10	> 10	> 1	> 300	> 300	> 20	2730	> 10	> 10	> 10	> 10	> 10	> 10	> 1000	> 3000	> 300	8.64	> 1000	798	> 1000	8.08	> 10	947	> 1000
